Laboratory results: patent US7166598B2, “Piperazine derivatives” (Astellas Pharma Inc., priority 1998, dated 2007)

SMILES | melting point
Cl.Cl.O=C(c1cc(C(F)(F)F)cc(C(F)(F)F)c1)N1CCN(CCCc2cccnc2)C[C@H]1Cc1ccc(F)c(O)c1 | 80 to 95 °C
COc1cc(C(=O)N2CCN(Cc3cccnc3)C[C@H]2Cc2ccc(C(F)(F)F)cc2)cc(C(F)(F)F)c1.Cl.Cl | 101 to 108 °C
COC[C@@H]1CN(CCN2CCN(C(=O)c3cc(C(F)(F)F)cc(S(=O)(=O)N4CCCC4)c3)[C@H](Cc3ccc(C)c(O)c3)C2)CCO1.Cl.Cl | 125 to 177 °C
CSc1cc(C(=O)N2CCN(CCN3C[C@@H](C)O[C@@H](C)C3)C[C@H]2Cc2ccc(Cl)c(O)c2)cc(C(F)(F)F)c1.Cl.Cl | 162 to 178 °C
COC[C@@H]1CN(CCN2CCN(C(=O)c3cc([N+](=O)[O-])cc(C(F)(F)F)c3)[C@H](Cc3ccc(C)c(O)c3)C2)CCO1.Cl.Cl | 181 to 185 °C
Cc1ccc(C[C@@H]2CN(CCN3CCc4ncccc4C3)CCN2C(=O)c2cc(C(F)(F)F)cc(C(F)(F)F)c2)cc1O.Cl.Cl.Cl | 255 to 270 °C
CN(C)c1cc(C(=O)N2CCN(CCN3CCc4ncccc4C3)C[C@H]2Cc2ccc(Cl)cc2)cc(C(F)(F)F)c1.Cl.Cl.Cl | 209 to 214 °C
Cl.Cl.O=C(c1cc(C(F)(F)F)cc(C(F)(F)F)c1)N1CCN(CCCc2cccnc2)C[C@H]1Cc1ccc(C(F)(F)F)cc1 | 64 to 74 °C
COC[C@@H]1CN(CCN2CCN(C(=O)c3cc(C(F)(F)F)cc(C(F)(F)F)c3)[C@H](Cc3ccc(C)c(N4CCOCC4)c3)C2)CCO1.Cl.Cl.Cl | 150 to 170 °C
COC[C@@H]1CN(CCN2CCN(C(=O)c3cc(C(F)(F)F)cc(S(N)(=O)=O)c3)[C@H](Cc3ccc(C)c(O)c3)C2)CCO1.Cl.Cl | 166 to 206 °C
COC[C@H]1CN(CCN2CCN(C(=O)c3cc(C(F)(F)F)cc(C(F)(F)F)c3)[C@H](Cc3ccc(Cl)c(O)c3)C2)CCO1.Cl.Cl | 204 to 214 °C
Cl.Cl.O=C(c1cc(C(F)(F)F)cc(C(F)(F)F)c1)N1CCN(CCN2[C@H](CO)CCC[C@@H]2CO)C[C@H]1Cc1ccc(C(F)(F)F)cc1 | 164 to 167 °C
COC[C@@H]1C[C@H](COC)CN(CCN2CCN(C(=O)c3cc(C(F)(F)F)cc(C(F)(F)F)c3)[C@H](Cc3ccc(F)c(OC)c3)C2)C1.Cl.Cl | 150 to 156 °C
COC[C@@H]1CN(CCN2CCN(C(=O)c3cc(-c4ccncc4)cc(C(F)(F)F)c3)[C@H](Cc3ccc(C(F)(F)F)cc3)C2)CCO1.Cl.Cl.Cl | 81 to 91 °C
C[C@@H]1CN(CCN2CCN(C(=O)c3cc(C(F)(F)F)cc(S(C)(=O)=O)c3)[C@H](Cc3ccc(C(F)(F)F)cc3)C2)C[C@H](C)O1.Cl.Cl | 188 to 195 °C
COC[C@@H]1CN(CCN2CCN(C(=O)c3cc(Cl)cc(C(F)(F)F)c3)[C@H](Cc3ccc(C(F)(F)F)cc3)C2)CCO1.Cl.Cl | 168 to 173 °C
COc1cc(C(=O)N2CCN(CCN3C[C@@H](C)O[C@@H](C)C3)C[C@H]2Cc2ccc(Cl)c(O)c2)cc(C(F)(F)F)c1.Cl.Cl | 177 to 182 °C
COc1cc(C[C@@H]2CN(CC#CCN3CCOCC3(C)C)CCN2C(=O)c2cc(C(F)(F)F)cc(C(F)(F)F)c2)ccc1F.Cl.Cl | 125 to 130 °C
C[C@@H]1CN(CCN2CCN(C(=O)c3cc(C(F)(F)F)cc(C(F)(F)F)c3)[C@H](Cc3ccc(F)c(F)c3)C2)C[C@H](C)O1.Cl.Cl | 223 to 228 °C
COC[C@@H]1CN(CCN2CCN(C(=O)c3cc(C(F)(F)F)cc(C(F)(F)F)c3)[C@H](Cc3ccc(C)c(F)c3)C2)CCO1.Cl.Cl | 148 to 160 °C
COC[C@@H]1CN(CCN2CCN(C(=O)c3cc(C(F)(F)F)cc(C(F)(F)F)c3)[C@H](Cc3ccc(F)c(C)c3)C2)CCO1.Cl.Cl | 151 to 156 °C
COC[C@@H]1CN(CCN2CCN(C(=O)c3cc(OC)cc(C(F)(F)F)c3)[C@H](Cc3ccc(C(F)(F)F)cc3)C2)CCO1.Cl.Cl | 126 to 155 °C
COc1cc(C(=O)N2CCN(CCN3C[C@@H](C)O[C@@H](C)C3)C[C@H]2Cc2ccc(Cl)cc2)cc(C(F)(F)F)c1.Cl.Cl | 90 to 120 °C
Cl.Cl.O=C(c1cc(C(F)(F)F)cc(C(F)(F)F)c1)N1CCN(CCN2CCC(F)(F)CC2)C[C@H]1Cc1ccc(Cl)c(O)c1 | 166 to 170 °C
COc1cc(C(=O)N2CCN(CC#CCN3CCOCC3(C)C)C[C@H]2Cc2ccc3ccccc3c2)cc(C(F)(F)F)c1.Cl.Cl | 190 to 199 °C
COc1cc(C(=O)N2CCN(CCN3CCC(F)(F)CC3)C[C@H]2Cc2ccc3ccccc3c2)cc(C(F)(F)F)c1.Cl.Cl | 243 to 260 °C
COc1cc(C(=O)N2CCN(CC#CCN3CCOCC3(C)C)C[C@H]2Cc2c[nH]c3ccccc23)cc(C(F)(F)F)c1.Cl.Cl | 190 to 200 °C
COc1cc(C(=O)N2CCN(CCN3CCC(F)(F)CC3)C[C@H]2Cc2c[nH]c3ccccc23)cc(C(F)(F)F)c1.Cl.Cl | 130 to 140 °C

Further lines, results first:

melting point | SMILES
160 to 170 °C | Cl.Cn1cc(CN2CCN(C(=O)c3cc(C(F)(F)F)cc(C(F)(F)F)c3)[C@H](Cc3ccc(F)c(O)c3)C2)cn1
226 to 228 °C | COc1cc(C(=O)N2CCN(Cc3cnn(C)c3)C[C@H]2Cc2ccc3ccccc3c2)cc(C(F)(F)F)c1.Cl
169 to 178 °C | CSc1cc(C(=O)N2CCN(CCN3CCc4ncccc4C3)C[C@H]2Cc2ccc(Cl)c(O)c2)cc(C(F)(F)F)c1.Cl.Cl.Cl
50 to 70 °C | COC[C@@H]1CN(C/C=C/CN2CCN(C(=O)c3cc(C(F)(F)F)cc(C(F)(F)F)c3)[C@H](Cc3ccc(C)c(O)c3)C2)CCO1.Cl.Cl
190 to 200 °C | Cc1ccc(C[C@@H]2CN(CCN3CCOc4cccnc43)CCN2C(=O)c2cc(C(F)(F)F)cc(C(F)(F)F)c2)cc1O.Cl.Cl
110 to 130 °C | Cc1ccc(C[C@@H]2CN(Cc3cccnc3)CCN2C(=O)c2cc(C(F)(F)F)cc(C(F)(F)F)c2)cc1O.Cl.Cl
60 to 80 °C | Cc1ccc(CC2CN(C/C=C/c3cccnc3)CCN2C(=O)c2cc(C(F)(F)F)cc(C(F)(F)F)c2)cc1O.Cl.Cl (stereo not shown)
142 to 182 °C | COC[C@@H]1CN(CCN2CCN(C(=O)c3cc(C(F)(F)F)cc(C(F)(F)F)c3)[C@H](Cc3ccc(C(F)(F)F)cc3)C2)[C@@H](C)CO1.Cl.Cl
198 to 201 °C | COc1cc(C[C@@H]2CN(CCN3CCC[C@H]3CO)CCN2C(=O)c2cc(C(F)(F)F)cc(C(F)(F)F)c2)ccc1F.Cl.Cl
154 to 156 °C | CSc1cc(C(=O)N2CCN(CCN3C[C@@H](C)O[C@@H](C)C3)C[C@H]2Cc2ccc(C(F)(F)F)cc2)cc(C(F)(F)F)c1.Cl.Cl
143.3 to 147.5 °C | COc1cc(C[C@@H]2CN(CCN3CCc4ncccc4C3)CCN2C(=O)c2cc(SC)cc(C(F)(F)F)c2)ccc1F.Cl.Cl.Cl
236.8 to 248.5 °C | COc1cc(C[C@@H]2CN(CCN3CCc4ncccc4C3)CCN2C(=O)c2cc(-c3ccncc3)cc(C(F)(F)F)c2)ccc1F.Cl.Cl.Cl.Cl
153 to 170 °C | COC[C@@H]1CN(CCN2CCN(C(=O)c3cc(SC)cc(C(F)(F)F)c3)[C@H](Cc3ccc(C(F)(F)F)cc3)C2)CCO1.Cl.Cl
146 to 159 °C | COC[C@@H]1CN(CCN2CCN(C(=O)c3cc(C(F)(F)F)cc(C(F)(F)F)c3)[C@H](Cc3ccc(C(F)(F)F)cc3)C2)CCO1.Cl.Cl
198 to 223 °C | Cl.Cl.O=C(c1cc(C(F)(F)F)cc(C(F)(F)F)c1)N1CCN(Cc2cccnc2)C[C@H]1Cc1ccc(C(F)(F)F)cc1
